Data from patent US20260028338A1, “HETEROBIFUNCTIONAL COMPOUNDS AND METHODS OF TREATING DISEASE” (Halda Therapeutics OpCo, Inc., priority 2023, published 2026).
pIC50, pKd: −log10 of the molar value.

Legend:
[1] = target: T1, His-tagged BRD4 BD2 (333-460) (Homo sapiens, UniProt O60885); experiment: AlphaLISA competition assay, BRD4 BD2; format: binding; conditions: BRD4-BD2, AlphaLISA competition with biotinylated histone H4K5/8/12/16(Ac) peptide, 20 nM
T1 construct: The same assay was developed for His-tagged BRD4 BD2 (333-460) and biotinylated histone H4K5/8/12/16(Ac) peptide
Method: (§1) Exemplary compounds were tested for ability to bind to bromodomain-containing protein 4 (BRD4).
(§2) Compounds were tested using a developed AlphaLISA competition assay. Briefly, His-tagged BRD4 BD1 (46-168) and biotinylated histone H4K5/8/12/16(Ac) peptide (ANASPEC, AS-64989-1) were incubated in 20 mM HEPES pH 7.5, 100 mM NaCl, 0.5 mM TCEP, 0.1% BSA, 0.02% CHAPS at a final concentration of 10 nM. Test compounds were serially diluted ten times in the same buffer and were added to the BRD4-peptide mixture for 1 h incubation at room temperature. Following incubation, Streptavidin AlphaLISA acceptor beads (PerkinElmer, AL125M) were added to BRD4-peptide-compound samples to a final concentration of 0.01 mg/mL for a 0.5 h incubation at room temperature in the dark. Following incubation, the same amount of Nickel Chelate Alpha donor beads (PerkinElmer, AS101M) were added to the samples for a final 1 h incubation. The AlphaLISA signals were measured using an EnVision plate reader (PerkinElmer). The data were uploaded to Screening Ultra (Dotmatics) to determine the half-maximal inhibitory concentration (IC50) for each test compound.
The same assay was developed for His-tagged BRD4 BD2 (333-460) and biotinylated histone H4K5/8/12/16(Ac) peptide at a final concentration of 20 nM.

Farage cell line = experiment: Cellular growth inhibition assay, Farage cells (CellTiter-Glo); format: cell-based; conditions: Farage cell line (DLBCL), 72 hours, CellTiter-Glo 2.0
Method: (§3) Exemplary compounds were tested for ability to inhibit the proliferation of Su-DHL-4 and Farage cells. Su-DHL-4 and Farage cells are commercially available diffuse large B cell lymphoma cell lines (DLBCL).
(§4) Su-DHL-4 and Farage cells were purchased from American Type Cell Culture (ATCC Cat #CRL-2957/CRL-2630) and then seeded on poly-D-lysine coated, black clear-bottom 384-well plates at 3000/well in 25 μL Roswell Park Memorial Institute media (RPMI-1640) supplemented with 10% w/w Fetal bovine serum (FBS) and 1% w/w Pen-Strep. Pen-Strep is a commercially available mixture of penicillin G and streptomycin, which is used in mammalian cell culture media to prevent bacterial contamination. Roswell Park Memorial Institute media (RPMI-1640) supplemented with 10% w/w fetal bovine serum (FBS), and 1% w/w Pen-Strep is herein referred to as Treatment Medium. Following seeding of cells in the plates, the plates were spun at 300×g for 30 seconds, then equilibrated to room temperature for 30 minutes, and then deposited in a humidified tissue culture incubator maintained at 37° C. with 5% CO2.
(§5) At 24 hours after seeding of the cells, dilutions of test compound were prepared in DMSO and dissolved in Treatment Medium, to achieve a final DMSO concentration of 0.5% w/w, thereby providing the Test Compound Solution. A 25 μL aliquot of the Test Compound Solution was added to cells in the well plates. An equal volume of a solution containing DMSO and Treatment Medium was used as a negative control. Following treatment of cells with Test Compound Solution or said equal volume of a solution containing DMSO and Treatment Medium, the plates were spun at 300×g for 30 seconds, and then left in an incubator for 72 hours.
(§6) At the end of the treatment duration, cell viability was quantified with CellTiter-Glo 2.0 reagent (Promega Cat #G9243). For this purpose, plates were equilibrated to room temperature for 30 minutes, and then 25 μL of CellTiter-Glo 2.0 reagent was added to cells in the plate wells. Plates were then agitated on a shaker for two minutes at 500 rpm and subsequently incubated at room temperature for 10 minutes. Following incubation, the plates were spun at 3000×g for 30 seconds, then sealed with an optical adhesive cover, and luminescence readings were measured with an EnVision Plate Reader (Perkin Elmer).
(§7) Data was normalized using zero luminescence for baseline. A four-parameter non-linear regression curve fit was applied to dose-response data in GraphPad Prism data analysis software to determine the half-maximal growth inhibitory concentration (GI50) for each test compound.

Su-DHL-4 cell line = experiment: Cellular growth inhibition assay, Su-DHL-4 cells (CellTiter-Glo); format: cell-based; conditions: Homo sapiens; Su-DHL-4 cell line (DLBCL), 72 hours, CellTiter-Glo 2.0
Method: as §3, §4, §5, §6, §7

[2] = tested on: T-Rex 293 cell line SC cells lacking increased expression of BCL6 protein; experiment: Cellular growth inhibition assay, T-Rex 293 SC cells without doxycycline (CellTiter-Glo); format: cell-based; conditions: T-Rex 293 SC cells not exposed to doxycycline (no increased BCL6 expression), 72 hours, CellTiter-Glo 2.0
Method: (§8) Exemplary compounds were tested for ability to inhibit the proliferation of the following types of cells: (i) a T-Rex 293 cell line having increased expression of BCL6 protein due to exposure of doxycycline and (ii) a T-Rex 293 cell line lacking increased expression of BCL6 protein.
(§9) The following types of cells were prepared for this experiment: (i) a T-Rex 293 cell line having increased expression of BCL6 protein due to exposure to doxycycline and (ii) a T-Rex 293 cell line lacking increased expression of BCL6 protein. Ability of the test compounds to inhibit proliferation of the foregoing cell types was evaluated according to the procedures set forth below.
(§10) The doxycycline-inducible BCL6 protein expressing cell line was established using the following protocol: T-Rex 293 cells were purchased from Invitrogen (Cat #R71007) and transfected using Lipofectamine 2000 with the wild-type BCL6 protein sequence cloned into the pcDNA4/TO vector. Transfected cells were selected using 400 μg/mL Zeocin (Invitrogen Cat #R25001). Following selection, single clones were raised and maintained in Dulbecco's Modified Eagle Medium (DMEM) supplemented with 10% w/w Tetracycline-free fetal bovine serum (FBS) and 250 μg/mL Zeocin. Clones were analyzed for expression of BCL6 protein in the presence and absence of 10 ng/mL doxycycline (Sigma Cat #D9891), and a single doxycycline-inducible clone (hereinafter “SC”) was selected for use in downstream assays.
(§11) The SC cells were seeded on poly-D-lysine coated, black clear-bottom 384-well plates at 2500/well, in 25 μL Dulbecco's Modified Eagle Medium (DMEM) supplemented with 10% w/w Tetracycline-free fetal bovine serum (FBS) and 1% w/w pen-strep, with or without 10 ng/mL doxycycline. Pen-Strep is a commercially available mixture of penicillin G and streptomycin, which is used in mammalian cell culture media to prevent bacterial contamination. Dulbecco's Modified Eagle Medium (DMEM) supplemented with 10% w/w Tetracycline-free fetal bovine serum (FBS) and 1% w/w pen-strep, with or without 10 ng/mL doxycycline is herein referred to as Treatment Medium. Following seeding of cells in the plates, the plates were spun at 300×g for 30 seconds, then equilibrated to room temperature for 30 minutes, and then deposited in a humidified tissue culture incubator maintained at 37° C. with 5% CO2.
as §5, §6, §7

[3] = target: T2, biotinylated BCL6 (5-129) (Homo sapiens, UniProt P41182); experiment: SPR assay for binding affinity to BCL6; conditions: Biacore 8K, 25° C., immobilized biotinylated BCL6 (5-129)
T2 construct: biotinylated BCL6 (5-129) was diluted in 10 mM HEPES pH 7.4; biotin (biotinylated)
Method: Exemplary compounds were tested for ability to bind to B-cell lymphoma 6 (BCL6) protein.
Binding studies by surface plasmon resonance (SPR) were performed using a Biacore 8K (Cytiva) instrument at 25° C. Briefly, biotinylated BCL6 (5-129) was diluted in 10 mM HEPES pH 7.4, 150 mM NaCl, 0.05% Surfactant P20, 0.5 mM TCEP, 3% DMSO to 1-5 μg/mL and was immobilized on an SA sensor chip (Cytiva, BR100032), resulting in surface densities at 1000-3000 resonance units (RUs). Test compounds were serially diluted five times in the same buffer and were injected to the immobilized surface. Kinetic determination experiments were performed using single-cycle kinetics with 110-120 s contact time, 1000-4000 s dissociation time, 30 μL/min flow rate. Binding data were analyzed by using Biacore insight evaluation software to determine KD values for test compounds.

[4] = tested on: T-Rex 293 cell line SC cells having increased expression of BCL6 protein; experiment: Cellular growth inhibition assay, T-Rex 293 SC cells with doxycycline (CellTiter-Glo); format: cell-based; conditions: T-Rex 293 SC cells with 10 ng/mL doxycycline (increased BCL6 expression), 72 hours, CellTiter-Glo 2.0
Method: as §8, §9, §10, §11, §5, §6, §7

[5] = target: T3, His-tagged BRD4 BD1 (46-168) (Homo sapiens, UniProt O60885); experiment: AlphaLISA competition assay, BRD4 BD1; format: binding; conditions: BRD4-BD1, AlphaLISA competition with biotinylated histone H4K5/8/12/16(Ac) peptide, 10 nM
T3 construct: His-tagged BRD4 BD1 (46-168) and biotinylated histone H4K5/8/12/16(Ac) peptide
Method: as §1, §2

Row | SMILES | pIC50 [1] | GI50 (Farage cell line) [nM] | GI50 (Su-DHL-4 cell line) [nM] | GI50 [2] [nM] | pKd [3] | GI50 [4] [nM] | pIC50 [5]
1 | CNC(=O)COc1cc2cc(Nc3nc(N4CCCC5(CC(Oc6ccc(C7=N[C@@H](Cc8ncco8)c8nnc(C)n8-c8sc(C)c(C)c87)cc6)C5)C4)ncc3Cl)ccc2n(C)c1=O (stereo partly shown) [Compound I-27] | > 8.30 | < 500 | < 500 | < 500 | < 7.00 | < 500 | 7.30 to 8.30
2 | CNC(=O)COc1cc2cc(Nc3nc(N4CCC(CN5CCN(CCN(C)[C@H]6C[C@H](Oc7ccc(C(C)(C)O)cc7-c7cn(C)c(=O)c8[nH]ccc78)C6)CC5)CC4)ncc3Cl)ccc2n(C)c1=O [Compound I-20] | > 8.30 | < 500 | < 500 | 500 to 1500 | 8.00 to 9.00 | < 500 | 7.30 to 8.30
3 | CNC(=O)COc1cc2cc(Nc3nc(N4CCC(CCN5CCN(CCOc6cccc(Oc7ccc(C(C)(C)O)cc7-c7cn(C)c(=O)c8[nH]ccc78)c6)CC5)CC4)ncc3Cl)ccc2n(C)c1=O [Compound I-24] | > 8.30 | < 500 | < 500 | < 500 | 8.00 to 9.00 | < 500 | 6.30 to 7.30
4 | CNC(=O)COc1cc2cc(Nc3nc(N4CCC5(CC4)CC(Oc4ccc(C6=N[C@@H](Cc7ncco7)c7nnc(C)n7-c7sc(C)c(C)c76)cc4)C5)ncc3Cl)ccc2n(C)c1=O [Compound I-25, 2-[[6-[[5-chloro-2-[2-[4-[(9S)-4,5,13-trimethyl-9-(oxazol-2-ylmethyl)-3-thia-1,8,11,12-tetrazatricyclo[8.3.0.02,6]trideca-2 (6),4,7,10,12-pentaen-7-yl]phenoxy]-7-azaspiro[3.5]nonan-7-yl]pyrimidin-4-yl]amino]-1-methyl-2-oxo-3-quinolyl]oxy]-N-methyl-acetamide] | > 8.30 | < 500 | < 500 | < 500 | < 7.00 | < 500 | 7.30 to 8.30
5 | CNC(=O)COc1cc2cc(Nc3nc(N4CCN(CCN5CCN(CCOc6cccc(Oc7ccc(C(C)(C)O)cc7-c7cn(C)c(=O)c8[nH]ccc78)c6)CC5)CC4)ncc3Cl)ccc2n(C)c1=O [Compound I-23, 2-[[6-[[5-chloro-2-[4-[2-[4-[2-[3-[4-(1-hydroxy-1-methyl-ethyl)-2-(6-methyl-7-oxo-1H-pyrrolo[2,3-c]pyridin-4-yl)phenoxy]phenoxy]ethyl]piperazin-1-yl]ethyl]piperazin-1-yl]pyrimidin-4-yl]amino]-1-methyl-2-oxo-3-quinolyl]oxy]-N-methyl-acetamide] | > 8.30 | < 500 | < 500 | 500 to 1500 | 8.00 to 9.00 | < 500 | > 8.30
6 | CNC(=O)COc1cc2cc(Nc3nc(N4CCN(CCN(C)C5CC(Oc6ccc(C(C)(C)O)cc6-c6cn(C)c(=O)c7[nH]ccc67)C5)CC4)ncc3Cl)ccc2n(C)c1=O (stereo not shown) [Compound I-18, 2-[[6-[[5-chloro-2-[4-[2-[[3-[4-(1-hydroxy-1-methyl-ethyl)-2-(6-methyl-7-oxo-1H-pyrrolo[2,3-c]pyridin-4-yl)phenoxy]cyclobutyl]-methyl-amino]ethyl]piperazin-1-yl]pyrimidin-4-yl]amino]-1-methyl-2-oxo-3-quinolyl]oxy]-N-methyl-acetamide] | > 8.30 | < 500 | < 500 | 500 to 1500 | 8.00 to 9.00 | < 500 | 7.30 to 8.30
7 | CNC(=O)COc1cc2cc(Nc3nc(N4CCC(CCCN5CCN(CCN(C)[C@H]6C[C@H](Oc7ccc(C(C)(C)O)cc7-c7cn(C)c(=O)c8[nH]ccc78)C6)CC5)CC4)ncc3Cl)ccc2n(C)c1=O [Compound I-19] | > 8.30 | < 500 | < 500 | 1500 to 3000 | 8.00 to 9.00 | < 500 | 7.30 to 8.30
8 | CNC(=O)COc1cc2cc(Nc3nc(N4CCC(CN5CC(Oc6ccc(C7=N[C@@H](Cc8ncco8)c8nnc(C)n8-c8sc(C)c(C)c87)cc6)C5)CC4)ncc3Cl)ccc2n(C)c1=O [Compound I-26] | > 8.30 | – | < 500 | < 500 | 7.00 to 8.00 | < 500 | > 8.30
